Key:
Assay in all cases: Indoor herbicide activity determination, Seed Treatment; pre-emergence (soil spray)
Format in all cases: in vivo
Aegilops tauschii = details: read-out: Herbicidal activities (inhibition rate) Aegilops tauschii; for inhibition at 120 g/ha: 120 g a.i./ha; for inhibition at 60 g/ha: 60 g a.i./ha
Outline: (§1)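 Weed seeds were sown in 7 cm pots of sandy nutrient soil (pH 6.1, 1% organic matter), covered, bottom-watered and held 24 h in a constant-temperature illuminated room before the soil surface was sprayed in a traveling spray tower. Fresh-weight inhibition versus untreated plants was scored 21 days later.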

Leptochloa chinensis = test system: Leptochloa chinensis
Outline: as §1

Cyperus iria = details: read-out: Herbicidal activities (inhibition rate) Cyperus iria; for inhibition at 120 g/ha: 120 g a.i./ha; for inhibition at 60 g/ha: 60 g a.i./ha
Outline: as §1

Digitaria sanguinalis = details: read-out: Herbicidal activities (inhibition rate) Digitaria sanguinalis; for inhibition at 120 g/ha: 120 g a.i./ha; for inhibition at 60 g/ha: 60 g a.i./ha
Outline: as §1

Lolium multiflorum = test system: Lolium multiflorum
Outline: as §1

Alopecurus myosuroides = test system: Alopecurus myosuroides
Outline: as §1

Alopecurus japonicus = test system: Alopecurus japonicus
Outline: as §1

Eclipta prostrata = details: read-out: Herbicidal activities (inhibition rate) Eclipta prostrata; for inhibition at 120 g/ha: 120 g a.i./ha; for inhibition at 60 g/ha: 60 g a.i./ha
Outline: as §1

Eleusine indica = test system: Eleusine indica
Outline: as §1

Structure (SMILES) | inhibition at 120 g/ha (Aegilops tauschii) [%] | Herbicidal activity (inhibition rate class), Leptochloa chinensis (Leptochloa chinensis; Dosage 240 g a.i./ha) | inhibition at 120 g/ha (Cyperus iria) [%] | inhibition at 120 g/ha (Digitaria sanguinalis) [%] | Herbicidal activity (inhibition rate class), Lolium multiflorum (Lolium multiflorum; Dosage 240 g a.i./ha) | Herbicidal activity (inhibition rate class), Alopecurus myosuroides (Alopecurus myosuroides; Dosage 240 g a.i./ha) | Herbicidal activity (inhibition rate class), Alopecurus japonicus (Alopecurus japonicus; Dosage 240 g a.i./ha) | inhibition at 120 g/ha (Eclipta prostrata) [%] | Herbicidal activity (inhibition rate class), Eleusine indica (Eleusine indica; Dosage 240 g a.i./ha) | further results
COC(=O)[C@@H]1C=C[C@H](NC(=O)C2(C)CC(c3cc(F)cc(OC(F)F)c3)=NO2)C1 (some centres unmarked) [I-505] | 80 to 100 | A (A indicates that the inhibition rate was greater than or equal to 80% to 100%) | 80 to 100 | 80 to 100 | A (A indicates that the inhibition rate was greater than or equal to 80% to 100%) | A (A indicates that the inhibition rate was greater than or equal to 80% to 100%) | A (A indicates that the inhibition rate was greater than or equal to 80% to 100%) | 80 to 100 | B (B indicates that the inhibition rate was greater than or equal to 60% to less than 80%) | 
C#CCOC(=O)[C@H]1C[C@@H](NC(=O)[C@@]2(C(F)(F)F)CC(c3cc(F)cc(OC(F)(F)F)c3)=NO2)C1 [I-255] |  |  |  |  |  |  |  |  |  | inhibition at 60 g/ha (Aegilops tauschii): 80 to 100%; Herbicidal activities, Leptochloa chinensis (inhibition rate class) (Leptochloa chinensis; Dosage 120 g a.i./ha): A (A indicates that the inhibition rate was greater than or equal to 80% to 100%); inhibition at 60 g/ha (Cyperus iria): 80 to 100%; inhibition at 60 g/ha (Digitaria sanguinalis): 60 to 80%; Herbicidal activities, Alopecurus myosuroides (inhibition rate class) (Alopecurus myosuroides; Dosage 120 g a.i./ha): A (A indicates that the inhibition rate was greater than or equal to 80% to 100%); Herbicidal activities, Alopecurus japonicus (inhibition rate class) (Alopecurus japonicus; Dosage 120 g a.i./ha): A (A indicates that the inhibition rate was greater than or equal to 80% to 100%); inhibition at 60 g/ha (Eclipta prostrata): 60 to 80%; Herbicidal activities, Eleusine indica (inhibition rate class) (Eleusine indica; Dosage 120 g a.i./ha): A (A indicates that the inhibition rate was greater than or equal to 80% to 100%)
C=C[C@]1(C(=O)N[C@H]2C=C[C@@H](C(=O)OC(C)C)C2)CC(c2cc(F)cc(OC(F)(F)F)c2)=NO1 [I-463] |  |  |  |  |  |  |  |  |  | inhibition at 60 g/ha (Aegilops tauschii): 60 to 80%; Herbicidal activity (inhibition rate class), Leptochloa chinensis (Leptochloa chinensis; Dosage 120 g a.i./ha): A (A indicates that the inhibition rate was greater than or equal to 80% to 100%); inhibition at 60 g/ha (Cyperus iria): 60 to 80%; inhibition at 60 g/ha (Digitaria sanguinalis): 60 to 80%; Herbicidal activity (inhibition rate class), Lolium multiflorum (Lolium multiflorum; Dosage 120 g a.i./ha): A (A indicates that the inhibition rate was greater than or equal to 80% to 100%); Herbicidal activity (inhibition rate class), Alopecurus myosuroides (Alopecurus myosuroides; Dosage 120 g a.i./ha): A (A indicates that the inhibition rate was greater than or equal to 80% to 100%); Herbicidal activity (inhibition rate class), Alopecurus japonicus (Alopecurus japonicus; Dosage 120 g a.i./ha): A (A indicates that the inhibition rate was greater than or equal to 80% to 100%); inhibition at 60 g/ha (Eclipta prostrata): 60 to 80%; Herbicidal activity (inhibition rate class), Eleusine indica (Eleusine indica; Dosage 120 g a.i./ha): A (A indicates that the inhibition rate was greater than or equal to 80% to 100%)
COC(=O)[C@@H]1C=C[C@H](NC(=O)C2(C)CC(c3cc(Cl)cc(OC(F)(F)F)c3)=NO2)C1 (some centres unmarked) [I-486] | 80 to 100 | A (A indicates that the inhibition rate was greater than or equal to 80% to 100%) | 80 to 100 | 60 to 80 | A (A indicates that the inhibition rate was greater than or equal to 80% to 100%) | A (A indicates that the inhibition rate was greater than or equal to 80% to 100%) | A (A indicates that the inhibition rate was greater than or equal to 80% to 100%) | 80 to 100 | A (A indicates that the inhibition rate was greater than or equal to 80% to 100%) | 
C=CC1(C(=O)N[C@H]2CO[C@@H](C(=O)OC)C2)CC(c2cc(Cl)cc(C(F)(F)F)c2)=NO1 (mixture of isomers) [I-371] | 80 to 100 |  | 60 to 80 | 60 to 80 |  |  |  | 40 to 60 |  | Herbicidal activities, Leptochloa chinensis (inhibition rate class) (Leptochloa chinensis; Dosage 240 g a.i./ha): A (A indicates that the inhibition rate was greater than or equal to 80% to 100%); Herbicidal activities, Lolium multiflorum (inhibition rate class) (Lolium multiflorum; Dosage 240 g a.i./ha): A (A indicates that the inhibition rate was greater than or equal to 80% to 100%); Herbicidal activities, Alopecurus myosuroides (inhibition rate class) (Alopecurus myosuroides; Dosage 240 g a.i./ha): A (A indicates that the inhibition rate was greater than or equal to 80% to 100%); Herbicidal activities, Alopecurus japonicus (inhibition rate class) (Alopecurus japonicus; Dosage 240 g a.i./ha): A (A indicates that the inhibition rate was greater than or equal to 80% to 100%); Herbicidal activities, Eleusine indica (inhibition rate class) (Eleusine indica; Dosage 240 g a.i./ha): A (A indicates that the inhibition rate was greater than or equal to 80% to 100%)
COC(=O)[C@@H]1C=C[C@H](NC(=O)C2(C)CC(c3cc(Cl)cc(C(F)(F)F)c3)=NO2)C1 (some centres unmarked) [I-511] | 80 to 100 | A (A indicates that the inhibition rate was greater than or equal to 80% to 100%) | 80 to 100 | 80 to 100 | A (A indicates that the inhibition rate was greater than or equal to 80% to 100%) | A (A indicates that the inhibition rate was greater than or equal to 80% to 100%) | A (A indicates that the inhibition rate was greater than or equal to 80% to 100%) | 80 to 100 | A (A indicates that the inhibition rate was greater than or equal to 80% to 100%) | 
C=CC1(C(=O)N[C@H]2CO[C@@H](C(=O)OC)C2)CC(c2cc(F)cc(C(F)(F)F)c2)=NO1 (mixture of isomers) [I-368] | 80 to 100 |  | 60 to 80 | 60 to 80 |  |  |  | 40 to 60 |  | Herbicidal activities, Leptochloa chinensis (inhibition rate class) (Leptochloa chinensis; Dosage 240 g a.i./ha): A (A indicates that the inhibition rate was greater than or equal to 80% to 100%); Herbicidal activities, Lolium multiflorum (inhibition rate class) (Lolium multiflorum; Dosage 240 g a.i./ha): A (A indicates that the inhibition rate was greater than or equal to 80% to 100%); Herbicidal activities, Alopecurus myosuroides (inhibition rate class) (Alopecurus myosuroides; Dosage 240 g a.i./ha): A (A indicates that the inhibition rate was greater than or equal to 80% to 100%); Herbicidal activities, Alopecurus japonicus (inhibition rate class) (Alopecurus japonicus; Dosage 240 g a.i./ha): A (A indicates that the inhibition rate was greater than or equal to 80% to 100%); Herbicidal activities, Eleusine indica (inhibition rate class) (Eleusine indica; Dosage 240 g a.i./ha): A (A indicates that the inhibition rate was greater than or equal to 80% to 100%)

Source: patent EP4722201A1, “3-PHENYLISOXAZOLINE-5-CARBOXAMIDE COMPOUND, AND PREPARATION METHOD THEREFOR, HERBICIDAL COMPOSITION THEREOF AND USE THEREOF” (Jiangsu Flag Chemical Industry Co., Ltd, priority 2023, dated 2024)
